US5352810A, “Phosphatidylinositol analogues, inhibitors of phosphatidylinositol specific phospholipase C” (Mediolanum Farmaceutici S.p.A., priority 1991, dated 1994)

Legend:
[1] = molecular target: phosphatidylinositol-specific phospholipase C (PLC); assay: Inhibition of phosphatidylinositol-specific phospholipase C enzymatic activity (hydrolysis of [3H]phosphatidylinositol); type: biochemical; settings: soluble fraction of human platelets; 20 min preincubation, 15 min reaction, pH 6.5, 37° C.; read-out: IC50 (Inhibitor concentration inhibiting 50% of the enzyme)
Method: The following experiments were carried out with the compounds prepared in the Examples 1-5 above mentioned in order to evaluate their ability to inhibit the enzymatic activity of phosphatidylinositol-specific phospholipase C (PLC).
The test were carried out according to the following operations.
1. Preparation of phosphatidylinositol-specific phospholipase C enzyme from human platelets.
As the starting material human plasma enriched with human platelets was used.
Platelets were precipitated from plasma by centrifugation at 0°-4° C. for 30 minutes at 2,500×g. The platelets precipitate was washed twice by using a buffer "A" Hepes pH 7 (137 mM NaCl, 20 mM Hepes; 1.0 mM EGTA; 5 mM glucose) and successively recovered by using buffer "B" Hepes (10 mM Hepes, pH 7).
The platelets were sonicated and centrifuged at 3,200×g for 20 minutes at 0-4° C. The surnatant consisting of platelets homogenate, was separated and ultracentrifuged at 105,000×g for 1 hour, thereby obtaining two fractions: the soluble one and the particulate one, both containing PLC.
2. Preparation of phosphatidylinositol substrate.
The substrate marked for PLC, L-3-phosphatidyl [2-^3 H] inositol, cod. […]
The product was purified by HPLC and had the following characteristics: specific activity 20 Ci/mMol (22.6 mCi/mg), radioactivity concentration 50μCi/ml ([…]=1.85 ×10^6 Bq); the hydroxyl groups 1 and 2 of glycerol resulted esterified with stearic acid and arachidonic acid in 90% of the product.
1 ml of a chloroform solution containing L-phosphatidylinositol (10 mg/ml sigma cod P 25/7 containing mainly stearic acid and arachidonic acid) was taken. […] Marked phosphatidylinositol was added to 9 ml of said solution in such an amount that in 300μl of the solution (2.0× 10^-4 M) thus obtained, 130,078±1316 Dpm were recorded. […]
In order to determine the inhibitory activity of the compounds of the present invention, said compounds and the enzyme were preincubated for 20 minutes. […] A suitable aliquot of the aqueous phase was utilized for the scintillatot readings.

[2] = tested on: K562 erythroleukaemia cell line; assay: In vitro antitumoral activity / toxicity assay (propidium iodide, flow cytofluorometry); type: cell-based; settings: FIG. 1
Method: The compound described in example 1.3 and named 309 bis was tested to evaluate the "in vitro" antitumoral activity according to the following method:
Cell cultures. K562 erythroleukaemia cell line was obtained from ATCC (Rockville, Md., USA). Cell culture media and plastic were from Flow (U.K.). Cells were grown in RPMI 1640 medium supplemented with 10% (v/v) heat-inactivated foetal calf serum, 2mM L-glutamine, 2.0 g.1^-1 bicarbonate, and 10 mM Hepes (4-(2-hydroxyethyl)-1-piperazine ethanesulphonic acid) in humidified atmosphere with 5% (v/v) CO2 at 37° C. Coltures were performed without the addition of any antibiotics, and were routinely checked for the presence of Mycoplasma infection.
Toxicity assay. Cells were washed and suspended to the final concentration of 10^6 ml^-1 in a medium containing 5% (v/v) FCS. The chemical compounds under evaluation were diluted from a 2 mM stock solution containing 5% (v/v) FCS and 0.2% (v/v) dimethylsulphoxide (DMSO, FCS and medium were added in sequence to facilitate solubility); when necessary, solutions were treated with short sonical pulses. 0.2% DMSO was added to controls. […] The 560-580 nm fluorescence of the death cells, excited at 490-495 nm, was monitored on a FACS-analizer flow cytofluorometer (Becton Dickinson, Calif., USA) using a Consort 30 programme. […]

Row | SMILES | IC50 [1] [µM] | % toxicity (percentage of killed cells), maximum ([2]; concentration 10^-3 -3×10^-3 M) [%] | antitumoral activity on erythroleukaemic cells ([2]; concentration 10^-5 M)
1 | CCCCCCCCCCCCCCSP(=O)(O)O[C@@H]1[C@H](O)[C@H](O)[C@@H](O)[C@H](O)[C@H]1O (relative stereo) [Example 3.3, 1-O-(TETRADECYLPHOSPHOTHIOLYL)-MYO-INOSITOL] | ~100 | – | –
2 | CCCCCCCCCCCCSP(=O)(O)O[C@@H]1[C@H](O)[C@H](O)[C@@H](O)[C@H](O)[C@H]1O (relative stereo) [Example 4.3, 1-O-(DODECYLPHOSPHOTHIOLYL)-MYO-INOSITOL] | > 100 | – | –
3 | CCCCCCCCCCCCCCCCCCSP(=O)(O)O[C@@H]1[C@H](O)[C@H](O)[C@@H](O)[C@H](O)[C@H]1O (relative stereo) [Example 1.3, 1-O-(OCTADECYLPHOSPHOTHIOLYL)-MYO-INOSITOL] | – | ~100 | shows antitumoral activity
4 | CCCCCCCCSP(=O)(O)O[C@@H]1[C@H](O)[C@H](O)[C@@H](O)[C@H](O)[C@H]1O (relative stereo) [Example 5.3, 1-O-(OCTYLPHOSPHOTHIOLYL)-MYO-INOSITOL] | > 100 | – | –
